PubChem BioAssay AID1963420 (Molecular Pharmacology Branch, DTP, NCI, 2024)
Where “and” joins values, the source holds several entries; their conditions need not be identical. Equal values may be shown once. Values belong to the compound of their own block, whether it stands above or below them.

System: 494315-158-R-J1-PDC complex spheroid growth, percent test/control
Assay: Anticancer human tumor 494315-158-R-J1-PDC patient-derived soft tissue sarcoma cell line growth inhibition [Asc]
Settings: for viability, T/C: stronger effect = lower value
Summary of the method: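 Stromal components (HUVEC and hMSC) are co-assembled with the cancer cells into multicellular spheroids. Drugs are then added singly or paired, at concentrations falling by half-log increments from a clinically achievable maximum, capped at 10 microM without known Cmax.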
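Note: compound exposure lasted seven days after spheroids formed for three days.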

IC50 (curve of first compound, second compound 0.1 µM): > 10 µM
IC50 (curve of first compound, second compound 0.316 µM): > 10 µM
IC50 (curve of first compound, second compound 1 µM): > 10 µM
IC50 (curve of first compound, second compound 3.16 µM): 4.04 µM
IC50 (curve of first compound, second compound 10 µM): > 10 µM
Compound: C#Cc1c(F)ccc2cc(O)cc(-c3ncc4c(N5CC6CCC(C5)N6)nc(OCC56CCCN5CC(F)C6)nc4c3F)c12 (centres undefined) + Cc1c(S(C)(=O)=O)c(-c2cc(F)cc(N3CCN(c4ccc(NS(=O)(=O)c5ccc(NC(CCN6CCC(C(=O)OCCCP(=O)(O)O)CC6)CSc6ccccc6)c(S(=O)(=O)C(F)(F)F)c5)cc4)CC3)c2)c(-c2ccc(Cl)cc2)n1C(C)C
viability, T/C (second compound 0.1 µM, first compound 0.0316 µM): 82.8%
viability, T/C (second compound 0.1 µM, first compound 0.1 µM): 89.9%
viability, T/C (second compound 0.1 µM, first compound 0.316 µM): 77.2%
viability, T/C (second compound 0.1 µM, first compound 1 µM): 88.6%
viability, T/C (second compound 0.1 µM, first compound 3.16 µM): 80.4%
viability, T/C (second compound 0.1 µM, first compound 10 µM): 59.8%
viability, T/C (second compound 0.316 µM, first compound 0.0316 µM): 84.9%
viability, T/C (second compound 0.316 µM, first compound 0.1 µM): 74.8%
viability, T/C (second compound 0.316 µM, first compound 0.316 µM): 74.8%
viability, T/C (second compound 0.316 µM, first compound 1 µM): 72.1%
viability, T/C (second compound 0.316 µM, first compound 3.16 µM): 71.9%
viability, T/C (second compound 0.316 µM, first compound 10 µM): 50.7%
viability, T/C (second compound 1 µM, first compound 0.0316 µM): 61.6%
viability, T/C (second compound 1 µM, first compound 0.1 µM): 78.1%
viability, T/C (second compound 1 µM, first compound 0.316 µM): 72.8%
viability, T/C (second compound 1 µM, first compound 1 µM): 69.2%
viability, T/C (second compound 1 µM, first compound 3.16 µM): 71.1%
viability, T/C (second compound 1 µM, first compound 10 µM): 51.4%
viability, T/C (second compound 3.16 µM, first compound 0.0316 µM): 51.9%
viability, T/C (second compound 3.16 µM, first compound 0.1 µM): 57.5%
viability, T/C (second compound 3.16 µM, first compound 0.316 µM): 65.7%
viability, T/C (second compound 3.16 µM, first compound 1 µM): 58.9%
viability, T/C (second compound 3.16 µM, first compound 3.16 µM): 51.5%
viability, T/C (second compound 3.16 µM, first compound 10 µM): 37.6%
viability, T/C (second compound 10 µM, first compound 0.0316 µM): 74.8%
viability, T/C (second compound 10 µM, first compound 0.1 µM): 78.8%
viability, T/C (second compound 10 µM, first compound 0.316 µM): 88.2%
viability, T/C (second compound 10 µM, first compound 1 µM): 81.2%
viability, T/C (second compound 10 µM, first compound 3.16 µM): 81.3%
viability, T/C (second compound 10 µM, first compound 10 µM): 55.5%

IC50 (curve of compound): > 1 µM
Compound: CCN1CCN(Cc2ccc(Nc3ncc(F)c(-c4cc(F)c5nc(C)n(C(C)C)c5c4)n3)nc2)CC1
viability, T/C (compound 0.00316 µM): 86.4% and 118% and 98.1%
viability, T/C (compound 0.01 µM): 95.3% and 99.7% and 103%
viability, T/C (compound 0.0316 µM): 97.3% and 110% and 101%
viability, T/C (compound 0.1 µM): 94.9% and 96.2% and 93.2%
viability, T/C (compound 0.316 µM): 86.4% and 92.8% and 116%
viability, T/C (compound 1 µM): 87% and 91.4% and 104%

IC50 (curve of compound): 3.95 µM and 3.36 µM and 4.31 µM
Compound: C=C(F)C(=O)N1CCN(c2nc(OCC3CCCN3C)nc3c2CCN(c2cccc4cccc(Cl)c24)C3)CC1CC#N (centres undefined)
viability, T/C (compound 0.0316 µM): 89.2% and 99.6% and 84.3%
viability, T/C (compound 0.1 µM): 92.5% and 97.5% and 96.5%
viability, T/C (compound 0.316 µM): 88.7% and 82.5% and 97.6%
viability, T/C (compound 1 µM): 84.9% and 84.5% and 86.7%
viability, T/C (compound 3.16 µM): 62% and 51.7% and 68.6%
viability, T/C (compound 10 µM): 0.23% and 0.25% and 0.24%
